Test results taken from the supplement of paper PMC11061612.

Legend:
[1] = system: U-118-MG (Low Grade Glioma); test: Bliss excess, mean over the matrix (fraction); higher = more synergy
Outline: (§1)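 Cell lines grown in DMEM/F12 or RPMI with 10% FBS were plated in 1536-well plates and held 24 hours at 37°C, 5% CO2 before 72 hours of exposure to two-drug dose matrices, with DMSO typically at 0.2%. CellTiter-Glo 2.0 luminescence gave viability, which was converted to inhibition. Vehicle wells were set to 0 and blank wells to 1. Combination Emax is the second-highest inhibition in the matrix, and Bliss excess is the observed combination effect minus the expected EA + EB − EA·EB, where EA and EB are the single-agent effects.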

[2] = system: HCT-116 (Colorectal Carcinoma); test: as above
Outline: as §1

[3] = system: FU-OV-1 (Ovarian Carcinoma); test: as above
Outline: as §1

[4] = system: WSU-DLCL2 (B-Cell Non-Hodgkin's Lymphoma); test: as above
Outline: as §1

[5] = system: CAL-39 (Other Solid Carcinomas); test: as above
Outline: as §1

[6] = system: Saos-2 (Osteosarcoma); test: as above
Outline: as §1

[7] = system: SLVL (B-Cell Non-Hodgkin's Lymphoma); test: as above
Outline: as §1

[8] = system: D-283MED (Other Solid Carcinomas); test: as above
Outline: as §1

[9] = system: SK-UT-1 (Other Solid Carcinomas); test: as above
Outline: as §1

[10] = system: NCI-H1688 (Small Cell Lung Carcinoma); test: as above
Outline: as §1

[11] = system: P31-FUJ (Acute Myeloid Leukemia); test: as above
Outline: as §1

[12] = system: TC-YIK (Other Solid Carcinomas); test: as above
Outline: as §1

[13] = system: FU-OV-1 (Ovarian Carcinoma); test: combination Emax (second highest fraction inhibited in the dose matrix, 72 h); higher = more inhibition; extreme values may be limits of the assay
Outline: as §1

[14] = system: TC-YIK (Other Solid Carcinomas); test: as above
Outline: as §1

[15] = system: SW48 (Colorectal Carcinoma); test: Bliss excess, mean over the matrix (fraction); higher = more synergy
Outline: as §1
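Throughout, for Bliss excess, mean over the matrix: after 72 h of two-drug dosing.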

SMILES	Bliss excess [1]	Bliss excess [2]	Bliss excess [3]	Bliss excess [4]	Bliss excess [5]	Bliss excess [6]	Bliss excess [7]	Bliss excess [8]	Bliss excess [9]	Bliss excess [10]	Bliss excess [11]	Bliss excess [12]	combination Emax [13]	combination Emax [14]	Bliss excess [15]
CN(C)CCCOc1ccc(-c2ccc3ncc4c(c3c2)n(C2CCOCC2)c(=O)n4C)cn1 [AZD0156] + O=C(c1cc(Cc2n[nH]c(=O)c3ccccc23)ccc1F)N1CCN(C(=O)C2CC2)CC1 [Olaparib] (first compound max 3 µM, partner max 3 µM)	0.0122	0.129	-0.0526	0.211	0.0549	0.0334	0.0638	0.115	0.0429	-0.0122	0.0759	0.102	0.211	0.379	–
C=CCn1c(=O)c2cnc(Nc3ccc(N4CCN(C)CC4)cc3)nc2n1-c1cccc(C(C)(C)O)n1 [AZD1775] + C1CN(CCC1(C(=O)N[C@@H](CCO)C2=CC=C(C=C2)Cl)N)C3=NC=NC4=C3C=CN4 [Capivasertib] (first compound max 3 µM, partner max 3 µM)	-0.0726	0.0051	-0.0615	-0.0709	-0.0152	-0.0459	–	-0.0189	-0.0037	-0.0409	-0.0276	-0.0543	0.565	0.895	–
COc1nnc2ccc(N3CCC(c4ccc(OCCN5CCN(C)C(=O)[C@H]5C)cc4)CC3)nn12 [AZD5153] + C=CCn1c(=O)c2cnc(Nc3ccc(N4CCN(C)CC4)cc3)nc2n1-c1cccc(C(C)(C)O)n1 [AZD1775] (first compound max 1 µM, partner max 1 µM)	-0.0235	-0.0367	0.0138	-0.0085	-0.0493	-0.0011	-0.142	-0.034	-0.0323	-0.0604	-0.0392	-0.0712	0.631	0.935	-0.0699
COc1nnc2ccc(N3CCC(c4ccc(OCCN5CCN(C)C(=O)[C@H]5C)cc4)CC3)nn12 [AZD5153] + CC1(C)CCC(CN2CCN(c3ccc(C(=O)NS(=O)(=O)c4ccc(NCC5CCOCC5)c([N+](=O)[O-])c4)c(Oc4cnc5[nH]ccc5c4)c3)CC2)=C(c2ccc(Cl)cc2)C1 [Venetoclax] (first compound max 1 µM, 7x7, partner max 1 µM)	-0.0349	-0.0614	-0.0369	0.0805	-0.0432	-0.0304	-0.0277	-0.0343	-0.0459	-0.003	-0.0447	-0.0716	0.631	0.862	-0.0081
COc1nnc2ccc(N3CCC(c4ccc(OCCN5CCN(C)C(=O)[C@H]5C)cc4)CC3)nn12 [AZD5153] + CCN(CCO)CCCOc1ccc2c(Nc3cc(CC(=O)Nc4cccc(F)c4)[nH]n3)ncnc2c1 [AZD2811] (first compound max 1 µM, 7x7, partner max 1 µM)	-0.0317	-0.0384	-0.0571	-0.019	-0.0508	-0.0809	-0.151	0.001	-0.0144	0.0116	-0.0293	-0.106	0.691	0.915	-0.0821
COc1nnc2ccc(N3CCC(c4ccc(OCCN5CCN(C)C(=O)[C@H]5C)cc4)CC3)nn12 [AZD5153] + C[C@@H]1COCCN1C2=NC(=NC(=C2)C3(CC3)[S@](=N)(=O)C)C4=C5C=CNC5=NC=C4 [AZD6738] (first compound max 1 µM, 7x7, partner max 10 µM)	0.0267	-0.0049	-0.0452	-0.0467	-0.011	0.0391	-0.13	-0.0087	0.0401	0.0719	-0.0685	-0.0626	0.744	0.965	-0.109
COc1nnc2ccc(N3CCC(c4ccc(OCCN5CCN(C)C(=O)[C@H]5C)cc4)CC3)nn12 [AZD5153] + Cc1c2c(nn1C)CSCc1cc(n(C)n1)CSc1cc(c3ccccc3c1)OCCCc1c(C(=O)O)n(C)c3c-2c(Cl)ccc13 [AZD5991] (first compound max 1 µM, 7x7, partner max 1 µM)	-0.0341	-0.0049	0.0022	0.0182	0.0313	0.0143	-0.119	-0.0409	-0.0031	0.0155	-0.0869	-0.0146	0.835	0.98	0.015
COc1nnc2ccc(N3CCC(c4ccc(OCCN5CCN(C)C(=O)[C@H]5C)cc4)CC3)nn12 [AZD5153] + Cn1cnc2c(F)c(Nc3ccc(Br)cc3Cl)c(C(=O)NOCCO)cc21 [Selumetinib] (first compound max 1 µM, 7x7, partner max 10 µM)	-0.016	-0.029	0.0236	-0.0365	-0.0175	-0.0452	-0.0385	-0.0211	0.0089	-0.0216	0.0339	0.0028	0.735	0.93	0.0619
